{
  "source": "patent US5622983A",
  "about": "“N-substituted cycloalkyl and polycycloalkyl α-substituted Trp-Phe- and phenethylamine derivatives” (Warner-Lambert Company, priority 1995, dated 1997)",
  "key": {"[1]": {"assay": "Light/dark exploration test (anxiolytic activity)", "type": "in vivo, mouse", "procedure": "In FIG. 2 the number of mice was 5 and the pretreatment time was 40 minutes. The compound was given p.o. in 0.1, 1, and 10 mg/kg doses.\nThe apparatus was an open-topped box, 45 cm long, 27 cm wide, and 27 cm high, divided into a small (2/5) area and a large (3/5) area by a partition that extended 20 cm above the walls. There was a 7.5×7.5 cm opening in the partition at floor level. The small compartment was painted black and the large compartment white. The floor of each compartment was marked into 9 cm squares. The white compartment was illuminated by a 100-watt tungsten bulb 17 cm above the box and the black compartment by a similarly placed 60-watt red bulb. The laboratory was illuminated with red light.\nAll tests were performed between 13 hundred hours, 0 minutes and 18 hundred hours, 0 minutes. Each mouse was tested by placing it in the center of the white area and allowing it to explore the novel environment for five minutes. Its behavior was recorded on videotape and the behavioral analysis was performed subsequently from the recording. Five parameters were measured: the latency to entry into the dark compartment, the time spent in each area, the number of transitions between compartments, the number of lines crossed in each compartment, and the number of rears in each compartment.\nDrugs were dissolved in water or saline and administered either subcutaneously, intraperitoneally, or by mouth (PO) via a stomach needle."}, "[2]": {"assay": "Palatable Diet Feeding assay", "type": "in vivo, rat", "settings": "dose producing 50% of the maximum effect possible (zero food intake)", "procedure": "In the Palatable Diet Feeding assay, adult male Hooded Lister rats weighing between 200-400 g were housed individually and trained to eat a palatable diet. This diet consisted of Nestles sweetened condensed milk, powdered rat food and rat water which when blended together set to a firm consistency. […] The intake of palatable diet was measured by weighing the food container before and after the 30-minute access period (limits of accuracy 0.1 g). Care was taken to collect and correct for any spillage of the diet. Rats had free access to pellet food and water except during the 30-minute test period.\nAfter the training period, dose-response curves were constructed for CCK8 and several representative compounds of the present invention (n=8-10 rats per dose level)."}, "[3]": {"system": "pentagastrin stimulated gastric acid secretion", "assay": "Pentagastrin stimulated gastric acid secretion (Ghosh and Schild perfused stomach)", "type": "in vivo, rat", "settings": "1 nmole/kg pentagastrin", "procedure": "They were anesthetized with urethane (1.5 g/kg IP) and the trachea cannulated to aid spontaneous respiration. The stomach was perfused continuously using a modification of the original method of Ghosh & Schild in \"Continuous recording of acid secretion in the rat\", Br. J. Pharmac. […] The fluid was propelled by a roller pump (Gilson, Minipuls 2), through heating coils to bring its temperature to 37°±1° C. The perfusion fluid was collected by the fundic collecting funnel and passed to a pH electrode connected to a Jenway pH meter (PHM6). An output was taken from the pH meter to a Rikadenki chart recorder for the on-line recording of the pH of the gastric perfusate.\nPentagastrin was stored as a frozen aliquot and diluted to the required concentrations with sterile 0.9% w/v NaCl. Novel compounds were dissolved in sterile 0.9% w/v NaCl on the day of the experiment. Drugs were administered IV through a cannulated jugular vein as a bolus in a dose volume of 1 mL/kg washed in with 0.15 mL 0.9% w/v NaCl. Basal pH was allowed to stabilize before administration of compounds was begun."}, "Central CCK Receptors": {"biological_target": "T1, Central CCK Receptors (Mus musculus, UniProt P56481)", "T1 sequence (P56481 1-453)": "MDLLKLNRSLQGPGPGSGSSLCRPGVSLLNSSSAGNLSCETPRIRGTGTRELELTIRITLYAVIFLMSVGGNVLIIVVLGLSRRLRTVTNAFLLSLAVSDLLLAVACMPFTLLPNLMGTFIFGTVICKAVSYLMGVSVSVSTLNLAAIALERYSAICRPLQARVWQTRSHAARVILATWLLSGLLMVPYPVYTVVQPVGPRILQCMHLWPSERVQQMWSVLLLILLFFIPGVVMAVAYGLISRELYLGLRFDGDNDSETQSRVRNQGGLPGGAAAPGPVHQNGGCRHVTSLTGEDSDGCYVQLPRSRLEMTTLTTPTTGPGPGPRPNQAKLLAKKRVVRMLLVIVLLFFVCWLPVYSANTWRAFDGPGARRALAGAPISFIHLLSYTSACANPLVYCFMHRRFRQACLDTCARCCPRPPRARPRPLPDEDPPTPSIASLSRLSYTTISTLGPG", "assay": "Binding to central CCK receptors (tritiated-pentagastrin displacement, cerebral cortical membranes)", "settings": "read-out: Binding to Central CCK Receptors Ki; displacement of 2 nM tritiated-pentagastrin, mouse cerebral cortical membranes", "description": "The biological activity of compounds of the present invention was evaluated employing an initial screening test which rapidly and accurately measured the binding of the tested compound to known CCK receptor sites.\nThe resulting suspension was centrifuged, the supernate was discarded, and the pellet was washed by resuspension in Tris-HCl buffer followed by recentrifugation.\nIn saturation studies, cerebral cortical membranes were incubated at 23° C. for 120 minutes in a final volume of 500 μliter of Hepes incubation buffer (pH 7.2) together with 0.2-20 nM tritiated-pentagastrin (Amersham International, England).\nIn each case, the nonspecific binding was defined as that persisting in the presence of the unlabeled octapeptide CCK26-33 (10^-6 M).\nFollowing incubation, radioactivity bound to membranes was separated from that free in solution by rapid filtration through Whatman GF/B filters and washed three times with 4 mL of ice cold Tris-HCl buffer.\nThe specific binding to CCK receptor sites was defined as the total bound tritiated-pentagastrin minus the amount of tritiated-pentagastrin bound in the presence of 10^-6 octapeptide, CCK26-33.\nThe inhibition constant (Ki) of the test compound was then calculated according to the Cheng-Prusoff equation: [formula] where [L] is the concentration of radiolabel and Ka is the equilibrium dissociation constant."}, "[4]": {"assay": "Antagonism of intra-accumbens amphetamine hyperactivity (antipsychotic activity)", "type": "in vivo, rat", "settings": "20 mg/kg or 30 mg/kg intraperitoneal; amphetamine 20 μg", "procedure": "Male Sprague Dawley (CD) Bradford strain rats were used. The rats were housed in groups of five at a temperature of 21°±2° C. on a 12 hour light-dark cycle of lights-on between 07 hours 00 minutes and […]. Rats were fed CRM diet (Labsure) and allowed water ad libitum.\nRats were anesthetized with chloral hydrate (400 mg/kg SC) and placed in a Kopf stereotaxic frame. Chronically indwelling guide cannulae (constructedof stainless steel tubing 0.65 mm diameter held bilaterally in Parspex holders) were implanted using standard stereotaxic techniques to terminate 3.5 mm above the center of the nucleus accumbens (Ant. 9.4, Vert. 0.0, Lat. 1.6) or 5.0 mm above the central nucleus of the amygdala (Ant. 5.8, Vert. -1.8, Lat. ±4.5) (atlas of De Groot, 1959). The guides were kept patent during a 14-day recovery period using stainless steel stylers, 0.3 mm diameter, which extended 0.5 mmbeyond the guide tips.\nRats were manually restrained and the stylers removed. Intracerebral injection cannulae, 0.3 mm diameter, were inserted and drugs delivered in a volume of 0.5 μl over 5 seconds (a further 55 seconds was allowed for deposition) from Hamilton syringes attached via polythene tubing to the injection units. […]\nThe abilities of the compounds (20) and (20A) to inhibit the hyperactivity caused by the injection of amphetamine into the nucleus accumbens of the rat was measured. […]"}, "[5]": {"assay": "Withdrawal from long-term drug or alcohol treatment, mouse light/dark box test", "type": "in vivo", "settings": "24-hour withdrawal", "procedure": "The effect of the compounds of the instant invention is illustrated, for example, in the mouse \"light/dark box\" test in FIGS. 5-12.\nIn FIG. 5, five animals were given nicotine, 0.1 mg/kg i.p.b.d. for 14 days. After a 24-hour withdrawal period, compound (20) was given at 1.0 mg/kg i.p.b.d.\nFIG. 6 illustrates the effect of long-term treatment and withdrawal from nicotine using compound (20A). Five mice were given nicotine at 0.1 mg/kg i.p.b.d. for 14 days. After a withdrawal period of 24 hours, compound (20A) was given at 10 mg/kg i.p.b.d.\nFIG. 7 illustrates the effect of long-term treatment and withdrawal from diazepam with intervention with compound (20). Five mice were given diazepam, at 10 mg/kg i.p.b.d. for seven days. Withdrawal was for a 24-hour period; compound 20 was given at 1.0 mg/kg i.p.b.d.\nFIG. 8 illustrates the effect of compound (20A) on the long-term treatment and withdrawal from diazepam. Five mice were given diazepam at 10 mg/kg i.p.b.d. for seven days. After a withdrawal period of 24 hours, compound (20A) was given at 10 mg/kg i.p.b.d.\nFIG. 9 illustrates the effect compound (20A) on the long-term treatment and withdrawal from alcohol. Five mice were given alcohol in drinking water 8% w/v for 14 days. After a withdrawal period of 24 hours, compound (20) was given at 1.0 mg/kg i.p.b.d.\nFive mice were given alcohol in drinking water, 8% w/v for 14 days. After a withdrawal period of 24 hours, compound (20A) was given at 10 mg/kg i.p.b.d.\nFIG. 11 illustrates the effectiveness in the long-term treatment and withdrawal from cocaine. Five mice were given cocaine as 1.0 mg/kg i.p.b.d. for 14 days.\nFive mice were given cocaine at 1.0 mg/kg i.p.b.d. for 14 days after a withdrawal period of 24 hours, compound (20a) was given at 1.0 mg/kg i.p.b.d."}, "[6]": {"assay": "Aspirin-induced gastric damage", "type": "in vivo, rat", "settings": "15 mg/kg PO", "procedure": "Aspirin-induced gastric damage was assessed in groups of 10 rats each.\nAll animals were fasted for 24 hours before and throughout the experiment. Drug or vehicle was given 10 minutes before an oral dose of 1 mL of a 45-mg/mL suspension of aspirin in 0.5% carboxymethylcellulose (CMC).\nThe animals were sacrificed five hours after aspirin administration and the stomachs removed and opened for examination."}},
  "data": [
    {"smiles": "C[C@](Cc1c[nH]c2ccccc12)(NC(=O)OC1C2CC3CC(C2)CC1C3)C(=O)NC[C@H](NC(=O)/C=C/C(=O)O)c1ccccc1", "note": "(relative stereo) [Example 22, [R-[R*,R*-(E)]]-4-[[2-[[3-(1H-indol-3-yl)-2-methyl-1-oxo-2-[[(tricyclo[3.3.1.1^3,7]dec-2-yloxy)carbonyl]amino]propyl]amino]-1-pbenylethyl]amino]-4-oxo-2-butenoic acid]", "values": [
      {"measurement": "time spent in the light area of the test box", "setting": "[1]; SC", "result": "significantly (p <0.01) increased the time spent in the light area"},
      {"measurement": "anxiolytic activity by the subcutaneous route", "setting": "[1]; subcutaneous", "result": "active"}
    ]},
    {"smiles": "CN1C(=O)CN=C(c2ccccc2)c2cc(Cl)ccc21", "note": "[Diazepam, reference compound]", "values": [
      {"measurement": "effect on crossings compared with compound (20)", "setting": "[1]; 0.25 mg/kg IP, same experiment", "result": "effect identical to compound (20)"}
    ]},
    {"smiles": "CC(Cc1c[nH]c2ccccc12)(NC(=O)OC1C2CC3CC(C2)CC1C3)C(=O)NC(COC(=O)CCC(=O)O)Cc1ccccc1", "note": "(stereo not drawn) [Example 16, [R-(R*,S*)]-2-[[3-(1H-indol-3-yl)-2-methyl-1-oxo-2-[[(tricyclo[3.3.1.1^3,7 dec-2-yloxy)carbonyl]amino]propyl]amino]-3-phenylpropyl butanedioate]", "values": [
      {"measurement": "Inhibition of Feeding on Rat Palatable Diet Assay I.P. MPE50", "setting": "[2]", "result": 10.5, "unit": "mg/kg"},
      {"measurement": "reversibility of the antagonism", "setting": "[3]", "result": "reversible with full recovery of the response to pentagastrin"},
      {"measurement": "effect on stimulation of gastric acid secretion produced by pentagastrin", "setting": "[3]; compound IV, anesthetized rat", "result": "attenuated"},
      {"measurement": "gastric acid secreted in response to pentagastrin after compound", "setting": "[3]; cumulative dose of 1.1 μmole/kg, initial pentagastrin response 254 μmoles/1 H^+", "result": 128, "unit": "μmoles/1 H^+"},
      {"measurement": "Ki", "setting": "Central CCK Receptors", "result": 30, "unit": "nM"}
    ]},
    {"smiles": "CC(Cc1c[nH]c2ccccc12)(NC(=O)OC1CC2CCC1(C)C2(C)C)C(=O)NCC(NC(=O)CCC(=O)O)c1ccccc1", "note": "(stereo not drawn) [Example 20A, [1S -[1α,2β[S*(S*)], 4α]]-4-[[2-[[3-(1H-indol-3-yl)-2-methyl-1-oxo-2-[[[(1,7,7-trimethylbicyclo[2.2.1]hept-2-yl)oxy]carbonyl]amino]propyl]amino]-1-phenylethyl]amino]-4-oxobutanoic acid]", "values": [
      {"measurement": "hyperactivity caused by intra-accumbens injection of amphetamine", "setting": "[4]", "result": "reduced the hyperactivity"},
      {"measurement": "time spent in the light section after withdrawal from alcohol (FIG. 10)", "setting": "[5]; alcohol 8% w/v in drinking water 14 days, compound 10 mg/kg i.p.b.d.", "result": "increased time spent in the light section"},
      {"measurement": "time spent in the light section after withdrawal from cocaine (FIG. 12)", "setting": "[5]; cocaine 1.0 mg/kg i.p.b.d. 14 days, compound 1.0 mg/kg i.p.b.d.", "result": "increase in time spent in the light section"},
      {"measurement": "time spent in the light section after withdrawal from diazepam (FIG. 8)", "setting": "[5]; diazepam 10 mg/kg i.p.b.d. seven days, compound 10 mg/kg i.p.b.d.", "result": "demonstrates the effectiveness of the compound"},
      {"measurement": "time spent in the light area after withdrawal from nicotine (FIG. 6)", "setting": "[5]; nicotine 0.1 mg/kg i.p.b.d. 14 days, compound 10 mg/kg i.p.b.d.", "result": "increase of time spent in the light area"},
      {"measurement": "Ki", "setting": "Central CCK Receptors", "result": 3, "unit": "nM"}
    ]},
    {"smiles": "CNC(=C[N+](=O)[O-])NCCSCc1ccc(CN(C)C)o1", "note": "[ranitidine, reference compound]", "values": [
      {"measurement": "inhibition of ulcer formation", "setting": "[6]", "result": 74, "unit": "%"},
      {"measurement": "ulcer score", "setting": "[6]; ±SD, saline control 12.1±6.85", "result": "3.2±2.35"}
    ]}
  ]
}
